Laboratory results from ChEMBL document CHEMBL1149598, “Synthesis of neutral and cationic tripyridylporphyrin-D-galactose conjugates and the photoinactivation of HSV-1” (Bioorg Med Chem, 2007).

Experiments:
[1] = Photostability assessed after irradiation with 50 mW/cm^2 white light for 1 min; assay type: ADME
[2] = Photostability assessed after irradiation with 50 mW/cm^2 white light for 3 mins; assay type: ADME; conditions: 0.05 h
[3] = Photostability assessed after irradiation with 50 mW/cm^2 white light for 5 mins; assay type: ADME
[4] = Photostability assessed after irradiation with 50 mW/cm^2 white light for 10 mins; assay type: ADME
[5] = Photostability assessed after irradiation with 50 mW/cm^2 white light for 15 mins; assay type: ADME; conditions: 0.25 h
[6] = (§1) Phototoxicity against 50 mW/cm^2 white light irradiated Vero cells assessed as viable cells pretreated at 0.01 uM after 48 hrs by MTT assay; assay type: cell-based; conditions: chlorocebus sabaeus, Vero cells; read-out: Activity
[7] = (§2) Phototoxicity against 50 mW/cm^2 white light irradiated Vero cells assessed as viable cells pretreated at 0.05 uM after 48 hrs by MTT assay; assay type: cell-based; conditions: chlorocebus sabaeus, Vero cells; read-out: Activity
[8] = (§3) Phototoxicity against 50 mW/cm^2 white light irradiated Vero cells assessed as viable cells pretreated at 0.1 uM after 48 hrs by MTT assay; assay type: cell-based; conditions: chlorocebus sabaeus, Vero cells; read-out: Activity
[9] = (§4) Phototoxicity against 50 mW/cm^2 white light irradiated Vero cells assessed as viable cells assessed as viable cells pretreated at 0.5 uM after 48 hrs by MTT assay; assay type: cell-based; conditions: chlorocebus sabaeus, Vero cells; read-out: Activity
[10] = (§5) Phototoxicity against 50 mW/cm^2 white light irradiated Vero cells assessed as viable cells pretreated at 1.0 uM after 48 hrs by MTT assay; assay type: cell-based; conditions: chlorocebus sabaeus, Vero cells; read-out: Activity
[11] = (§6) Phototoxicity against 50 mW/cm^2 white light irradiated Vero cells assessed as viable cells pretreated at 2.5 uM after 48 hrs by MTT assay; assay type: cell-based; conditions: chlorocebus sabaeus, Vero cells; read-out: Activity
Human alphaherpesvirus 1 [12] = experiment: Virucidal activity against HSV1 at 0.02 uM; assay type: functional; conditions: for inhibition at 0.02 µM: Human alphaherpesvirus 1
Human alphaherpesvirus 1 [13] = experiment: (§7) Virucidal effect against HSV1 pretreated at 0.02 uM after 5 mins of irradiation with 50 mW/cm^2 white light; assay type: functional; conditions: for inhibition at 0.02 µM: Human alphaherpesvirus 1, light or radiation study
Human alphaherpesvirus 1 [14] = experiment: as §7; assay type: functional; conditions: for inhibition at 0.02 µM: Human alphaherpesvirus 1, light or radiation study; remark: listed apart in the source
Human alphaherpesvirus 1 [15] = experiment: Inhibition of HSV1 infected Vero cells treated at 0.02 uM assessed virus yield under dark condition; assay type: functional; conditions: Human alphaherpesvirus 1, Vero
Human alphaherpesvirus 1 [16] = experiment: Inhibition of HSV1 infected Vero cells treated at 0.02 uM assessed virus yield after 2 hrs under dark condition; assay type: functional; conditions: Human alphaherpesvirus 1, Vero
Human alphaherpesvirus 1 [17] = experiment: Inhibition of HSV1 infected Vero cells treated at 0.02 uM assessed virus yield after 4 hrs under dark condition; assay type: functional; conditions: Human alphaherpesvirus 1, Vero
Human alphaherpesvirus 1 [18] = experiment: Inhibition of HSV1 infected Vero cells treated at 0.02 uM assessed virus yield after 16 hrs under dark condition; assay type: functional; conditions: Human alphaherpesvirus 1, Vero
Human alphaherpesvirus 1 [19] = experiment: Inhibition of HSV1 infected Vero cells treated at 0.02 uM assessed virus yield irradiated with 50 mW/ cm^2 white light for 15 mins; assay type: functional; conditions: Human alphaherpesvirus 1, Vero, light or radiation study, 0.25 h
Human alphaherpesvirus 1 [20] = experiment: Inhibition of HSV1 infected Vero cells treated at 0.02 uM assessed virus yield after 2 hrs of irradiated with 50 mW/ cm^2 white light for 15 mins; assay type: functional; conditions: Human alphaherpesvirus 1, Vero, light or radiation study
Human alphaherpesvirus 1 [21] = experiment: Inhibition of HSV1 infected Vero cells treated at 0.02 uM assessed virus yield after 4 hrs of irradiated with 50 mW/ cm^2 white light for 15 mins; assay type: functional; conditions: Human alphaherpesvirus 1, Vero, light or radiation study
Human alphaherpesvirus 1 [22] = experiment: Inhibition of HSV1 infected Vero cells treated at 0.02 uM assessed virus yield after 16 hrs of irradiated with 50 mW/ cm^2 white light for 15 mins; assay type: functional; conditions: Human alphaherpesvirus 1, Vero, light or radiation study
Vero [23] = experiment: as §1; assay type: cell-based; conditions: chlorocebus sabaeus, vero, 48 h, 0.01 µM
Vero [24] = experiment: as §2; assay type: cell-based; conditions: chlorocebus sabaeus, vero, 48 h, 0.05 µM
Vero [25] = experiment: as §3; assay type: cell-based; conditions: chlorocebus sabaeus, vero, 48 h, 0.1 µM
Vero [26] = experiment: as §4; assay type: cell-based; conditions: chlorocebus sabaeus, vero, 48 h, 0.5 µM
Vero [27] = experiment: as §5; assay type: cell-based; conditions: chlorocebus sabaeus, vero, 48 h, 1 µM
Vero [28] = experiment: as §6; assay type: cell-based; conditions: chlorocebus sabaeus, vero, 48 h, 2.5 µM

Row | Activity [1] [%] | Activity [2] [%] | Activity [3] [%] | Activity [4] [%] | Activity [5] [%] | SMILES | viability at 48 h, 0.01 µM [6] [%] | viability at 48 h, 0.05 µM [7] [%] | viability at 48 h, 0.1 µM [8] [%] | viability at 48 h, 0.5 µM [9] [%] | viability at 48 h, 1 µM [10] [%] | viability at 48 h, 2.5 µM [11] [%] | inhibition at 0.02 µM (Human alphaherpesvirus 1 [12]) [%] | inhibition at 0.02 µM (Human alphaherpesvirus 1 [13]) [%] | inhibition at 0.02 µM (Human alphaherpesvirus 1 [14]) [%] | other results
1 | 100 | 98 | 97 | 88 | 83 | O=C(OC[C@H]1OC(O)[C@H](O)[C@@H](O)[C@H]1O)c1ccc(-c2c3nc(c(-c4ccncc4)c4ccc([nH]4)c(-c4ccncc4)c4nc(c(-c5ccncc5)c5ccc2[nH]5)C=C4)C=C3)cc1 (some centres undefined) | 108 | 98.4 | 92.3 | 55.5 | 27.2 | 4.4 | 28.6 | 44.5 | 85.6 | inhibition at 0.02 µM (Human alphaherpesvirus 1 [15]): 0%; inhibition at 0.02 µM (Human alphaherpesvirus 1 [16]): 0%; inhibition at 0.02 µM (Human alphaherpesvirus 1 [17]): 0%; inhibition at 0.02 µM (Human alphaherpesvirus 1 [18]): 45.8%; inhibition at 0.02 µM (Human alphaherpesvirus 1 [19]): 71.1%; inhibition at 0.02 µM (Human alphaherpesvirus 1 [20]): 79.2%; inhibition at 0.02 µM (Human alphaherpesvirus 1 [21]): 93.6%; inhibition at 0.02 µM (Human alphaherpesvirus 1 [22]): 95.7%
2 | 98 | 98 | 98 | 94 | 93 | CC1(C)O[C@H]2[C@@H](O1)[C@@H](COC(=O)c1ccc(-c3c4nc(c(-c5ccncc5)c5ccc([nH]5)c(-c5ccncc5)c5nc(c(-c6ccncc6)c6ccc3[nH]6)C=C5)C=C4)cc1)O[C@@H]1OC(C)(C)O[C@@H]12 | – | – | – | – | – | – | – | – | – | Activity (Vero [23]): 100.8%; Activity (Vero [24]): 96.4%; Activity (Vero [25]): 93.9%; Activity (Vero [26]): 36.4%; Activity (Vero [27]): 14.4%; Activity (Vero [28]): 6.4%; Inhibition (Human alphaherpesvirus 1 [12]): 27.7%; Inhibition (Human alphaherpesvirus 1 [13]): 36.4%; Inhibition (Human alphaherpesvirus 1 [14]): 78.9%
3 | 99 | 99 | 96 | 92 | 87 | O=C(O)c1ccc(-c2c3nc(c(-c4ccncc4)c4ccc([nH]4)c(-c4ccncc4)c4nc(c(-c5ccncc5)c5ccc2[nH]5)C=C4)C=C3)cc1 [PORPHIRIN] | 105 | 95.7 | 90.6 | 76.6 | 39.7 | 11.4 | 8.9 | 52.9 | 90.5 | –

Row | SMILES | Activity [1] [%] | Activity [2] [%] | Activity [3] [%] | Activity [4] [%] | Activity [5] [%] | viability at 48 h, 0.01 µM [6] [%] | viability at 48 h, 0.05 µM [7] [%] | viability at 48 h, 0.1 µM [8] [%] | viability at 48 h, 0.5 µM [9] [%] | viability at 48 h, 1 µM [10] [%] | viability at 48 h, 2.5 µM [11] [%] | inhibition at 0.02 µM (Human alphaherpesvirus 1 [12]) [%] | inhibition at 0.02 µM (Human alphaherpesvirus 1 [13]) [%] | inhibition at 0.02 µM (Human alphaherpesvirus 1 [14]) [%] | other results
4 | C[n+]1ccc(-c2c3nc(c(-c4cc[n+](C)cc4)c4ccc([nH]4)c(-c4cc[n+](C)cc4)c4nc(c(-c5ccc(C(=O)O)cc5)c5ccc2[nH]5)C=C4)C=C3)cc1.[I-].[I-].[I-] | 98 | 98 | 98 | 98 | 97 | 110 | 98.6 | 96.7 | 89.2 | 76.6 | 56.3 | 16.7 | 50 | 63.3 | –
